Test results from patent publication US20230063238A1, “IMMUNOMODULATORS” (Bristol-Myers Squibb Company, priority 2020, published 2023).
Starred links: 1 amine or outer side, 2 acyl side, 3 side chain; linkers in the order of their positions; H or OH if unused. Positions of bridges follow the written chain, without caps; N, C: chain ends. Non-standard residues stand in square brackets, D forms with d. Residues, ends and D or L forms follow the SMILES beside them. *: point of attachment. Trp(1-CH2CO2Me) = COC(=O)Cn1cc(C[C@H](N)C(=O)O)c2ccccc21; Hyp = O=C(O)[C@@H]1C[C@@H](O)CN1; Oxalyl = O=C(C(=O)[*:2])[*:1]; X9 = O=C(Nc1ccc(F)cc1F)C(=O)*; NMeNle = CCCC[C@H](NC)C(=O)O; X10 = Cc1cc(NC(=O)C(=O)*)no1; X2 = CCc1nnc(NC(=O)C(=O)*)s1; NMeA = CN[C@@H](C)C(=O)O; Dab = NCC[C@H](N)C(=O)O; Dap = NC[C@H](N)C(=O)O; Oxamoyl = NC(=O)C(=O)*; X7 = CN(C)C(=O)C(=O)*

Target: T1, PD-1/PD-L1 (Homo sapiens, UniProt Q9NZQ7)
T1 construct: TVMV protease site linker (C); made in house; host or cells: HEK293T cells
Test: PD-1/PD-L1 Homogenous Time-Resolved Fluorescence (HTRF) binding assay
Settings: PD-L1-His 10 nM final, PD-1-Ig 20 nM final; inhibitors pre-incubated with PD-L1-His for 15 m
Excerpt: The ability of the compounds of formula (I) to bind to PD-L1 was investigated using a PD-1/PD-L1 Homogenous Time-Resolved Fluorescence (HTRF) binding assay.
Homogenous Time-Resolved Fluorescence (HTRF) Binding Assay
The interaction of PD-1 and PD-L1 can be assessed using soluble, purified preparations of the extracellular domains of the two proteins. The PD-1 and PD-L1 protein extracellular domains were expressed as fusion proteins with detection tags, for PD-1, the tag was the Fc portion of Immunoglobulin (PD-1-Ig) and for PD-L1 it was the 6 histidine motif (PD-L1-His). All binding studies were performed in an HTRF assay buffer consisting of dPBS supplemented with 0.1% […] bovine serum albumin and 0.05% (v/v) Tween-20. For the h/PD-L1-His binding assay, inhibitors were pre-incubated with PD-L1-His (10 nM final) for 15 m in 4 μl of assay buffer, followed by addition of PD-1-Ig (20 nM final) in 1 μl of assay buffer and further incubation for 15m. HTRF detection was achieved using europium crypate-labeled anti-Ig (1 nM final) and allophycocyanin (APC) labeled anti-His (20 nM final). Antibodies were diluted in HTRF detection buffer and 5 μl was dispensed on top of the binding reaction. The reaction mixture was allowed to equilibrate for 30 minutes and the resulting signal (665 nm/620 nm ratio) was obtained using an EnVision fluorometer. Additional binding assays were established between the human proteins PD-1-Ig/PD-L2-His (20 & 5 nM, respectively) and CD80-His/PD-L1-Ig (100 & 10 nM, respectively).
Recombinant Proteins: Human PD-1 (25-167) with a C-terminal human Fc domain of immunoglobulin G (Ig) epitope tag [hPD-1 (25-167)-3S-IG] and human PD-L1 (18-239) with a C-terminal His epitope tag [hPD-L1(18-239)-TVMV-His] were expressed in HEK293T cells and purified sequentially by ProteinA affinity chromatography and size exclusion chromatography. Human PD-L2-His and CD80-His was obtained through commercial sources.
Table 1 lists the IC50 values for representative examples of this disclosure measured in the PD-1/PD-L1 Homogenous Time-Resolved Fluorescence (HTRF) binding assay.

T1 sequence (Q9NZQ7 18-239): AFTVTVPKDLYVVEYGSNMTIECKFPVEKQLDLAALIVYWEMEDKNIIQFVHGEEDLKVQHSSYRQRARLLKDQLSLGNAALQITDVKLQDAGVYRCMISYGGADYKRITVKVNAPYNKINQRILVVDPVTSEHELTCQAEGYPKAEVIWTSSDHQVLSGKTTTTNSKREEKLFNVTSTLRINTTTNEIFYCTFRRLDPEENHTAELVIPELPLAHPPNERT

| IC50 | Compound |
| --- | --- |
| 3.2 nM | CCCC[C@H]1C(=O)N(C)[C@@H](CCCC)C(=O)N[C@@H](CC(C)C)C(=O)N[C@H](C(=O)NCC(N)=O)CSCC(=O)N[C@@H](Cc2ccc(O)cc2)C(=O)N(C)[C@@H](C)C(=O)N[C@@H](CC(N)=O)C(=O)N2CCC[C@H]2C(=O)N[C@@H](CNC(=O)C(=O)Nc2nnc(CC)s2)C(=O)N[C@@H](CC(C)C)C(=O)N2C[C@H](O)C[C@H]2C(=O)N[C@@H](Cc2c[nH]c3ccccc23)C(=O)N[C@@H](CCNC(=O)C(=O)Nc2nnc(CC)s2)C(=O)N[C@@H](Cc2cn(CC(=O)OC)c3ccccc23)C(=O)N1C [Compound 2008] ({CH2CO}-Y[NMeA]NP[Dap](X2)L[Hyp]W[Dab](X2)[Trp(1-CH2CO2Me)][NMeNle][NMeNle]LCG-NH2; thioether N-14) |
| 2.7 nM | CCCC[C@H]1C(=O)N(C)[C@@H](CCCC)C(=O)N[C@@H](CC(C)C)C(=O)N[C@H](C(=O)NCC(N)=O)CSCC(=O)N[C@@H](Cc2ccc(O)cc2)C(=O)N(C)[C@@H](C)C(=O)N[C@@H](CC(N)=O)C(=O)N2CCC[C@H]2C(=O)N[C@@H](CNC(=O)C(N)=O)C(=O)N[C@@H](CC(C)C)C(=O)N2C[C@H](O)C[C@H]2C(=O)N[C@@H](Cc2c[nH]c3ccccc23)C(=O)N[C@@H](CCNC(=O)C(N)=O)C(=O)N[C@@H](Cc2cn(CC(=O)OC)c3ccccc23)C(=O)N1C [Compound 2006] ({CH2CO}-Y[NMeA]NP[Dap](Oxamoyl)L[Hyp]W[Dab](Oxamoyl)[Trp(1-CH2CO2Me)][NMeNle][NMeNle]LCG-NH2; thioether N-14) |
| 3.1 nM | CCCC[C@H]1C(=O)N(C)[C@@H](CCCC)C(=O)N[C@@H](CC(C)C)C(=O)N[C@H](C(=O)NCC(N)=O)CSCC(=O)N[C@@H](Cc2ccc(O)cc2)C(=O)N(C)[C@@H](C)C(=O)N[C@@H](CC(N)=O)C(=O)N2CCC[C@H]2C(=O)N[C@@H](CNC(=O)C(=O)O)C(=O)N[C@@H](CC(C)C)C(=O)N2C[C@H](O)C[C@H]2C(=O)N[C@@H](Cc2c[nH]c3ccccc23)C(=O)N[C@@H](CCN)C(=O)N[C@@H](Cc2cn(CC(=O)OC)c3ccccc23)C(=O)N1C [Compound 1002] ({CH2CO}-Y[NMeA]NP[Dap](Oxalyl)L[Hyp]W[Dab][Trp(1-CH2CO2Me)][NMeNle][NMeNle]LCG-NH2; thioether N-14) |
| 3 nM | CCCC[C@H]1C(=O)N(C)[C@@H](CCCC)C(=O)N[C@@H](CC(C)C)C(=O)N[C@H](C(=O)NCC(N)=O)CSCC(=O)N[C@@H](Cc2ccc(O)cc2)C(=O)N(C)[C@@H](C)C(=O)N[C@@H](CC(N)=O)C(=O)N2CCC[C@H]2C(=O)N[C@@H](CNC(=O)C(=O)Nc2cc(C)on2)C(=O)N[C@@H](CC(C)C)C(=O)N2C[C@H](O)C[C@H]2C(=O)N[C@@H](Cc2c[nH]c3ccccc23)C(=O)N[C@@H](CCNC(=O)C(=O)Nc2cc(C)on2)C(=O)N[C@@H](Cc2cn(CC(=O)OC)c3ccccc23)C(=O)N1C [Compound 2004] ({CH2CO}-Y[NMeA]NP[Dap](X10)L[Hyp]W[Dab](X10)[Trp(1-CH2CO2Me)][NMeNle][NMeNle]LCG-NH2; thioether N-14) |
| 2.4 nM | CCCC[C@H]1C(=O)N(C)[C@@H](CCCC)C(=O)N[C@@H](CC(C)C)C(=O)N[C@H](C(=O)NCC(N)=O)CSCC(=O)N[C@@H](Cc2ccc(O)cc2)C(=O)N(C)[C@@H](C)C(=O)N[C@@H](CC(N)=O)C(=O)N2CCC[C@H]2C(=O)N[C@@H](CNC(=O)C(=O)N(C)C)C(=O)N[C@@H](CC(C)C)C(=O)N2C[C@H](O)C[C@H]2C(=O)N[C@@H](Cc2c[nH]c3ccccc23)C(=O)N[C@@H](CCNC(=O)C(=O)N(C)C)C(=O)N[C@@H](Cc2cn(CC(=O)OC)c3ccccc23)C(=O)N1C [Compound 2005] ({CH2CO}-Y[NMeA]NP[Dap](X7)L[Hyp]W[Dab](X7)[Trp(1-CH2CO2Me)][NMeNle][NMeNle]LCG-NH2; thioether N-14) |
| 1.8 nM | CCCC[C@H]1C(=O)N(C)[C@@H](CCCC)C(=O)N[C@@H](CC(C)C)C(=O)N[C@H](C(=O)NCC(N)=O)CSCC(=O)N[C@@H](Cc2ccc(O)cc2)C(=O)N(C)[C@@H](C)C(=O)N[C@@H](CC(N)=O)C(=O)N2CCC[C@H]2C(=O)N[C@@H](CNC(=O)C(=O)Nc2ccc(F)cc2F)C(=O)N[C@@H](CC(C)C)C(=O)N2C[C@H](O)C[C@H]2C(=O)N[C@@H](Cc2c[nH]c3ccccc23)C(=O)N[C@@H](CCNC(=O)C(=O)Nc2ccc(F)cc2F)C(=O)N[C@@H](Cc2cn(CC(=O)OC)c3ccccc23)C(=O)N1C [Compound 2010] ({CH2CO}-Y[NMeA]NP[Dap](X9)L[Hyp]W[Dab](X9)[Trp(1-CH2CO2Me)][NMeNle][NMeNle]LCG-NH2; thioether N-14) |
